tested on: histamine-induced dyspnea; experiment: Bronchodilator (in vivo) Guinea Pig Dyspnea; details: 10 mg/kg, oral, one hour before histamine challenge
Protocol: Unanesthetized guinea pigs (250-350 g), fasted overnight were placed in individual closed aerosol chambers which were connected to a Monoghan Ultrasonic nebulizer. The nebulizer can deliver an ultrasonic fog of uniform particles in a range of 1-8 microns. A 0.1% solution of histamine is aerosolized into the chambers causing the guinea pigs to develop dyspnea. The test drug was given orally one hour before the histamine challenge and the onset of dyspnea was recorded. Saline control animals developed dyspnea within 90-120 seconds of aerosol exposure. […] The data was expressed as the number tested over the number survived. The model was sensitive to bronchodilator and H1 antihistamine activity. Further information relating this test can be obtained from the following two publications which are hereby incorporated by reference: Dungan, K. W. and Lish, P. M. J Allergy 32:139-151 (1961). and Lish, P. M., Robbins, S. I. and Petres E. L. J. Pharmacol. Exp. Therap. 153 L 1538 (1966 ).

Q: With `CN1C2CCC1C1=C(C2)C(c2ccc(F)cc2)c2ccccc21` (centres unmarked) [W] as the molecule, how does the DYSP survivors read?
A: 1/3

same assay, conditions: 20 mg/kg, oral, one hour before histamine challenge

Q: Which DYSP survivors does the source give for `CN1C2CCC1C1=C(C2)C(c2ccc(F)cc2)c2ccccc21` (centres unmarked) [W] here?
A: 2/3

same assay, conditions: 50 mg/kg, oral, one hour before histamine challenge

Q: For `CN1C2CCC1C1=C(C2)C(c2ccc(F)cc2)c2ccccc21` (centres unmarked) [W], which DYSP survivors is on record?
A: 2/3

same assay, conditions: 100 mg/kg, oral, one hour before histamine challenge

Q: With `COc1ccc(C2C3=C(c4ccccc42)C2CCC(C3)N2C)cc1OC` (centres unmarked) [AA] as the molecule, how does the DYSP survivors read?
A: 0/3

Q: For `CN1C2CCC1C1=C(C2)C(c2ccc(F)cc2)c2ccccc21` (centres unmarked) [W], which DYSP survivors is on record?
A: 3/3

tested on: pulmonary resistance; experiment: Pulmonary Resistance in the Anesthetized Rat; type: in vivo; details: 0.5 mpk, i.v.; mean of 5 animals; % decrease in pre-drug baseline resistance
Protocol: Rats (400-500 g) anesthetized with dialurethane were surgically prepared with tracheal and esophageal catheters. These catheters were connected to pressure transducers for recording of air flow, tracheal and esophageal pressures. These pressures formed the basis for measurement of pulmonary resistance. Inhibition of pulmonary resistance is a reflection of bronchodilation.
All compounds were tested i. v. in 5 separate animals. All data are expressed in % decrease in the pre-drug baseline resistance and each number given is the mean of the 5 animals tested.
The model is sensitive to bronchodilator activity.
Further information relating this test can be obtained from the following publications which are hereby incorporated by reference: Comroe et al, J. Appl. Physio. 4:439-44 (1959); Dungan et al J. Pharmacol. Exp. Therap. 164:290-301(1968); and Mead, J. et al. J. Appl. Physio. 5:779-796 (1953).

Q: For `COc1ccc(C2C3=C(c4ccccc42)C2CCC(C3)N2C)cc1OC` (centres unmarked) [AA], which “Pulmonary Resistance in Rats, % Inhibition” value is on record?
A: 6%

Q: For `CN1C2CCC1C1=C(C2)C(c2ccc(F)cc2)c2ccccc21` (centres unmarked) [W], which “Pulmonary Resistance in Rats, % Inhibition” value is on record?
A: 21%

tested on: acetic acid-induced writhing; experiment: Acetic Acid Writhing Test in Mice; type: in vivo, mouse; details: Mus musculus, po, read-out: WRITH ED50
Excerpt: The blockade of writhing induced by the intraperitoneal injection of acetic acid is an established experimental animal model for the screening of antinociceptive drugs (drugs which prevent the appreciation or transmission of pain sensations).
The procedure for the Acetic Acid Writhing Test in Mice is set forth in Hendershot et al, J. Pharmacol. Exp. Therap. 125:237, (1959); Koster et al., Fed. Proc. 18:412, (1959); and international application PCT/US91/06705, filed 20 Sep. 1991, which are hereby incorporated by reference.
The results for this test are given below in the units of mg/kg which is also abbreviated in this specification as mpk. The results for this test are given as effective doses (ED50 's).

Q: For `COc1ccc(C2C3=C(c4ccccc42)C2CCC(C3)N2C)cc1OC` (centres unmarked) [AA], which ED50 is on record?
A: 22.8 mg/kg

Q: With `CN1C2CCC1C1=C(C2)C(c2ccc(F)cc2)c2ccccc21` (centres unmarked) [W] as the molecule, how does the ED50 read?
A: 10.7 mg/kg

tested on: TBZ-induced ptosis; experiment: Effects on tetrabenazine (TBZ)-induced ptosis in mice; type: in vivo, mouse; details: Mus musculus, po
Excerpt: Clinically active antidepressant drugs are known to block TBZ-induced ptosis in mice (See Psychosomatic Medicine, Nodine and Moyer, Eds. Lea and Febiger, Philadelphia, 1962, pp 683-90, which is hereby incorporated by reference). Activity in this test is used to predict anti-depressant activity in man.
The procedure for the TBZ-Induced Ptosis Test in Mice is set forth in Psychosomatic Medicine, Nodine and Moyer, Eds. Lea and Febiger, which is hereby incorporated by reference and in PCT/US91/06705, filed 20 Sep. 1991, which is mentioned above.
(§1) The results for this test are given below as ED50 's in the units of mg/kg.
TBZ refers to the test of effects on tetrabenazine induced ptosis in mice, p.o.;

Q: For `COc1ccc(C2C3=C(c4ccccc42)C2CCC(C3)N2C)cc1OC` (centres unmarked) [AA], which ED50 is on record?
A: > 30 mg/kg

Q: For `CN1C2CCC1C1=C(C2)C(c2ccc(F)cc2)c2ccccc21` (centres unmarked) [W], which ED50 is on record?
A: > 30 mg/kg

tested on: muricidal (mouse-killing) behavior; experiment: Effects on muricidal behavior in rats; type: in vivo, rat; details: Rattus norvegicus, read-out: MUR ED50
Excerpt: Blockade of muricidal (mouse-killing) behavior in rats is used as a measure of evaluating the anti-depressant activity of drugs, and the procedure for carrying out this test is set forth in Int. J. Neuro-pharmacal., 5, 405-411 (1966) are hereby incorporated by reference, and in PCT/US91/06705, filed 20 Sep. 1991, which is mentioned above.
as §1
MUR refers to the test on the effects on muricidal behavior in rats;

Q: Which ED50 does the source give for `COc1ccc(C2C3=C(c4ccccc42)C2CCC(C3)N2C)cc1OC` (centres unmarked) [AA] here?
A: > 10 mg/kg

tested on: methamphetamine toxicity; experiment: Methamphetamine toxicity test in mice; type: in vivo; details: Mus musculus, read-out: METHA ED50
Protocol: The methamphetamine toxicity test in mice was carried out as described in Burn et al, Arch. Int. Pharmacodyn 113:290-295, (1958); and Coscia et al, Arzneim-Forsch (Drug Research) 25:1436-1442, (1975); which are hereby incorporated by reference.
(§2) The results for this test are given below as ED50's in the units of mg/kg.
METHA refers to the methamphetamine toxicity test in mice;

Q: For `COc1ccc(C2C3=C(c4ccccc42)C2CCC(C3)N2C)cc1OC` (centres unmarked) [AA], which ED50 is on record?
A: > 30 mg/kg

Q: With `CN1C2CCC1C1=C(C2)C(c2ccc(F)cc2)c2ccccc21` (centres unmarked) [W] as the molecule, how does the ED50 read?
A: 8.9 mg/kg

tested on: metrazole; experiment: Anti-metrazole test in mice; type: in vivo, mouse; details: Mus musculus, read-out: MTZ ED50
Protocol: The anti-metrazole test in mice was carried out as described in Everett et al, J. Pharmacol. Exp. Therap. 81:402-407 (1944); which is hereby incorporated by reference.
as §2

Q: For `COc1ccc(C2C3=C(c4ccccc42)C2CCC(C3)N2C)cc1OC` (centres unmarked) [AA], which ED50 is on record?
A: > 30 mg/kg

Q: Which ED50 does the source give for `CN1C2CCC1C1=C(C2)C(c2ccc(F)cc2)c2ccccc21` (centres unmarked) [W] here?
A: > 30 mg/kg

tested on: LOX human melanoma cell adhesion to human fibronectin; experiment: LOX melanoma cell adhesion to fibronectin; type: cell-based; details: Homo sapiens, LOX, 10 μM; read-out: % Inhibition at 10 μM
Protocol: (§3) Adhesion assays were run essentially as described previously (Pai et al., J. Biomed. Res. 2: 53, 1992). 96-well plates were coated with human fibronectin (140 ng/well), human vitronectin (75 ng/well), human collagen I (100 ng/well), human collagen IV (100 ng/well), human fibrinogen (1 μg/well), murine laminin (600 ng/well), or polylysine, and incubated overnight in a humidified 37° C. incubator. Excess fibronectin or other substrate was then removed and 0.2 ml of 2 mg/ml bovine serum albumin (BSA)in Dulbecco's phosphate-buffered saline (DPBS) was added to each well, incubated for 2 hours at 37° C., and removed. LOX human melanoma cells, M27 murine lung carcinoma cells or B16F10 mouse melanoma cells were detached from tissue culture flasks with RPMI medium containing 0.2M urea and 10 mM EDTA, and 0.18 ml of cells were added to each well to a final cell concentration of 1×10^5 cells/well. For inhibition studies 20 μl of 10× compound was added to the wells prior to cell addition. Cells were allowed to adhere for 1 hour at 37° C. The wells were then gently washed twice with 0.2 ml DPBS. The fluorescent dye calcein AM (Molecular Probes, Eugene Oreg.) in DPBS (0.1 ml of 1 μM) was added to each well, and the plates were incubated for 1 hour at room temperature. Adherent cells were quantitated by reading the fluorescence on a Cytofluor 2300 fluorescent plate reader (Millipore) at 485 nm excitation and 530 nm emission.
LOX FN-IC50 value for inhibition of adhesion of LOX human melanoma cells to fibronectin coated on a plastic surface.

Q: With `COc1ccc(C2C3=C(c4ccccc42)C2CCC(C3)N2C)cc1OC` (centres unmarked) [AA] as the molecule, how does the inhibition at 10 µM read?
A: -30%

Q: For `CN1C2CCC1C1=C(C2)C(c2ccc(F)cc2)c2ccccc21` (centres unmarked) [W], which inhibition at 10 µM is on record?
A: 36.3%

same assay, conditions: Homo sapiens, LOX, 50 μM; read-out: % Inhibition at 50 μM

Q: With `COc1ccc(C2C3=C(c4ccccc42)C2CCC(C3)N2C)cc1OC` (centres unmarked) [AA] as the molecule, how does the inhibition at 50 µM read?
A: 23.6%

Q: With `CN1C2CCC1C1=C(C2)C(c2ccc(F)cc2)c2ccccc21` (centres unmarked) [W] as the molecule, how does the inhibition at 50 µM read?
A: 100%

same assay, conditions: Homo sapiens, LOX; Table 4; 1 hour adhesion; read-out: LOX FN IC50

Q: For `CN1C2CCC1C1=C(C2)C(c2ccc(F)cc2)c2ccccc21` (centres unmarked) [W], which IC50 is on record?
A: 17.4 µM

tested on: not listed separately; experiment: Calcein cytotoxicity assay; type: cell-based; details: human, lox melanoma cells; 2 hours, calcein AM assay; read-out: 2 Hr Tox LD50
Protocol: LOX human melanoma cells were detached from tissue culture flasks with RPMI medium containing 0.2M urea and 10 mM EDTA, and 0.18 ml of cells were added to each well to a final cell concentration of 5×10^4 cells/well. 20 μl of 10× compound was added to the wells prior to cell addition. Cells were incubated with the compound at 37° C. for 1 hour or 5 hour as indicated. Calcein AM in DPBS (0.02 ml of 5 μM) was added to each well, and the plates were incubated for an additional 1 hour at room temperature. Viable cells were quantitated by reading the fluorescence on a Cytofluor 2300 fluorescent plate reader at 485 nm excitation and 530 nm emission.

Q: Which CC50 at 2 h does the source give for `CN1C2CCC1C1=C(C2)C(c2ccc(F)cc2)c2ccccc21` (centres unmarked) [W] here?
A: 103 µM

tested on: LOX human melanoma cell adhesion to polylysine; experiment: LOX melanoma cell adhesion to polylysine; type: cell-based; details: read-out: Poly Lys IC50
Protocol: as §3

Q: Which IC50 does the source give for `CN1C2CCC1C1=C(C2)C(c2ccc(F)cc2)c2ccccc21` (centres unmarked) [W] here?
A: 78.3 µM

Source: patent US5461057A, “Hydro-ethano-indeno-pyridines” (priority 1994, dated 1995)
